Conditions: rat; liver microsomes; pH 7.4; 15.0 min; 1.0 µM

SMILES	half-life
COc1ccc(CN2CCN(C(=O)c3cc4c(s3)CCC4)CC2)cc1	1.9 min
CCC(=O)NC(c1cccs1)c1cc([N+](=O)[O-])c2cccnc2c1O (stereo not drawn)	> 30 min
Cc1cc(C)nc(NC(=S)N2CCN(Cc3cccc(C(F)(F)F)c3)CC2)c1	> 30 min
Nc1nc2c(s1)C(c1cc(Cl)ccc1F)CC(=O)N2 (stereo not drawn)	> 30 min
O=C1CCCC2=C1C(c1ccccc1Cl)N=C(Nc1nc3ccccc3o1)N2 (stereo not drawn)	9.38 min
Cc1cc(SCC(=O)c2ccccc2)n2ncc(-c3ccccc3)c2n1	3.77 min
O=c1[nH]c(C2CCN(CC3CCCCC3)CC2)nn1Cc1ccccc1	25.3 min
Cc1cc(-c2nnc3n2CCCCC3)c(C)n1-c1ccc(C(C)(C)C)cc1	1.9 min
CCC(CC)c1cc([C@H]2CN3CC[C@H]2C[C@@H]3CNS(=O)(=O)c2cccs2)nc(-c2ccncc2)n1	> 30 min
c1ccc2c(Nc3ccn[nH]3)nc(-c3ccncc3)nc2c1	13 min
Cc1cc(NS(=O)(=O)c2ccc(NC(=O)Cc3ccc(Cl)c(Cl)c3)cc2)n(C)n1	13 min
Cc1noc(C)c1-c1ccc2ncnc(NC(C)c3ccccc3)c2c1 (stereo not drawn)	7.65 min
COC(C)(C)CCn1nc(Nc2c(C)cccc2C)c2cnc(Nc3ccc(OCCN4CCCC4)c(F)c3)nc21	3.28 min
COc1cc2c(cc1OCCCN1CCCC1)N=C(N)C21CCC1	> 30 min
CC(=O)N1CCc2cc(-c3nc(NC(=O)Cc4ccc5c(c4)OCO5)sc3C)ccc21	20 min
CC(=O)NC1CCN(c2nc(-c3ccc(Br)cc3)cs2)CC1	> 30 min
NC(=O)C1CCN(c2nc(-c3ccc4c(c3)OCCCO4)cs2)CC1	6.7 min
C[C@H]1CN(C(=O)Nc2ccc(F)cc2)C[C@@H]1c1nc(-c2ccccc2)no1	> 30 min
O=[S+]([O-])(Nc1nccs1)c1ccc(NCc2cccc3c2NCC3)cc1	> 30 min
Cc1noc(C)c1-c1ccc(-c2cc(C(N)=O)c(NC(N)=O)s2)c(O[C@H]2CCNC2)c1	> 30 min
COc1ccnc(NC(=S)N2CCN(c3cc(C(F)(F)F)cc(C(F)(F)F)c3)CC2)c1	> 30 min
Cc1ccccc1C(=O)N1CCc2cc(-c3nc(NC(=O)Cc4ccc5c(c4)OCCO5)sc3C)ccc21	22 min

SMILES	half-life
Nc1ncnc2c1c(-c1cnc3[nH]ccc3c1)nn2C1CCCC1	3.09 min
N#Cc1cnccc1-c1nc(Nc2ccc(F)c(F)c2)c2ccccc2n1	6.4 min
CCOC(=O)c1ccc2c(c1)c(C(C)=O)c(C)n2-c1ccc(OC)cc1	1.5 min
Cc1cccc(CNc2ccc(S(=O)(=O)Nc3nccs3)cc2)c1O	21 min
Brc1ccc(-c2csc(N3CCCCC3)n2)cc1	3.45 min
CC(CCc1ccc(O)cc1)NCc1ccc(Cl)cc1Cl (stereo not drawn)	1.7 min
CCNC(=O)N1CCCN(c2ccc(C(=O)NCCc3ccc(Cl)cc3Cl)cc2NC(=O)c2cccc(Cl)c2)CC1	0.9 min
Cc1ccc(C(=O)Nc2ccc(CN3CCN(C)CC3)c(C(F)(F)F)c2)cc1C#Cc1cnc2cccnn12	> 30 min
COc1ccc(CNC(=O)Cn2nc3c(cc2=O)CCCC3)cc1	> 30 min
O=c1[nH]cnc2nc[nH]c12	> 30 min
CC1=C(C(=O)Nc2ccccc2)C(c2ccccc2Cl)N=C(Nc2nc3ccccc3o2)N1 (stereo not drawn)	24 min
COCCNS(=O)(=O)c1cc(-c2nn3c(C)nnc3c3ccccc23)ccc1C	4.77 min
Nc1c(-c2ccncc2)cc[nH]c1=O	> 30 min
CCc1ccc2oc(NC3=NC(c4[nH]ncc4Cl)C4=C(CCCC4=O)N3)nc2c1 (stereo not drawn)	22 min
O=C(NCCc1nc2ccccc2n1CCO)C1CCCCC1	20.3 min
Cn1nnnc1Sc1ncnc2scc(Br)c12	19.6 min
O=S(=O)(Nc1nccs1)c1ccc(NCc2cccc(Cl)c2O)cc1	14 min
Cc1cccc(-n2nc(C)c3c2NC(=O)CSC3c2ccccc2Cl)c1 (stereo not drawn)	1.63 min
COc1ccc(C)cc1NC(=O)c1cnc(-c2ccc(F)cc2)nc1-c1ccncc1	5.86 min
Cc1ccc(-n2c(C)cc(-c3nnc4n3CCCCC4)c2C)cc1	1.62 min
COc1cc(C2c3cc(O)c(OC)cc3CC3C(=O)OCC32)ccc1O (stereo not drawn)	21.1 min
Oc1ccc(Nc2nc(-c3ccncc3)nc3ccccc23)cc1F	28 min

SMILES	half-life
COc1ccc(Nc2cc3c(nc2OC)nc(CCc2ccccc2)n3C)cn1	19.5 min
CCOC(=O)c1c[nH]c2c3c(ccc2c1=O)CCCC3	20.4 min
Cc1ccc2c(c1)N(S(=O)(=O)c1cc(-c3onc(C)c3C)ccc1C)CCO2	1.56 min
CC(=O)Nc1ccc(C(=O)Nc2ccccc2N)cc1	> 30 min
CN(C)CCOc1ccc(C(=C(CCCl)c2ccccc2)c2ccccc2)cc1	> 30 min
Cc1cccc2nc(-c3cccnc3)c(Nc3ccc(C(C)C)cc3)n12	1 min
CCCCn1cnc2cc(NC(=O)c3cc(OC)c(OC)c(OC)c3)ccc21	> 30 min
Cc1ccc(C)n1-c1cccc(C(=O)O)c1	12 min
NC(=O)COc1ccc(C2CC(=O)Nc3n[nH]c(Nc4ccccc4)c32)cc1 (stereo not drawn)	> 30 min
Oc1cccc2nc3ccccc3nc12	8.9 min
CC(C)(C)C(=O)N1CCN(c2nccc(Nc3ccccc3Cl)n2)CC1	4.07 min
COC(=O)CNC(=O)c1nc(-c2ccc(Cl)cc2Cl)c2cnccn12	3.71 min
CCCC1=Nc2cc(C(=O)NC3CCCCC3)ccc2Sc2ccc(C)cc21	1.48 min
Fc1cc(Nc2nc(-c3ccncc3)nc3ccccc23)ccc1OC(F)(F)F	> 30 min
Cc1cccc(-n2ncc3c2CCCC3NC(=O)c2c(F)ccc(F)c2F)c1C (stereo not drawn)	0.96 min
CC(C)(O)CCc1ccc(OCc2cc(-c3cccc(OC(F)F)c3)c3ncccc3c2)cc1	> 30 min
O=C1CCCC2=C1C1(CCCC1)N=C(Nc1nc3cc(Br)ccc3o1)N2	4.9 min
COc1ccc(OC)c(Nc2c3c(nc4ccccc24)CCC3)c1	1.5 min
Oc1cccc(-c2nc(N3CCOCC3)c3oc4ncccc4c3n2)c1	21.8 min
COc1ccc(C(=O)CCN(C)C)cc1F	1.08 min
NC(=O)C1CCN(c2ncc(-c3ccc4c(c3)OC(F)(F)O4)s2)CC1	9.4 min
CN(C)CCOC1=Cc2ccccc2Sc2ccc(Cl)cc21	1.29 min

SMILES	half-life
NC(=O)C1CCN(c2nc(-c3cccc(C(F)(F)F)c3)cs2)CC1	1.99 min
Cc1ccc(S(=O)(=O)Nc2cccc(C(=O)Nc3nc(-c4ccccc4)cs3)c2Cl)cc1	15 min
CN(Cc1cccs1)c1nc(-c2ccccc2C(F)(F)F)nc2ccccc12	1.98 min
OCc1cccc(-c2cc(-c3cccnc3)c3cncn3c2)c1	22 min
CC/C=C\C/C=C\C/C=C\C/C=C\C/C=C\C/C=C\CCC(=O)NCCO	4.94 min
COc1ccccc1OCCNCC(O)COc1cccc2[nH]c3ccccc3c12 (stereo not drawn)	1.52 min
COc1ccc(C2c3c(ncn(CCN4CCOCC4)c3=N)Oc3ccc4ccccc4c32)cc1OC (stereo not drawn)	3.6 min
CCCCCOc1ccccc1/C(=C\SC)n1ccnc1	6.67 min
Cc1cc(S(=O)(=O)Nc2cnccc2C(=O)Nc2nc(-c3ccccc3)cs2)c(C)o1	8.55 min
OCCOCCN1CCN(C(c2ccccc2)c2ccc(Cl)cc2)CC1 (stereo not drawn)	5.93 min
Cc1nc2ccc(NC(=O)c3cc(S(=O)(=O)N(C)c4ccccc4)ccc3Cl)cc2s1	1.55 min
O=S(=O)(Nc1ccc(-c2cccnc2)c2cccnc12)c1cccc(C(F)(F)F)c1	1.25 min
Clc1ccc(-c2noc3ncnc(N4CCCCC4)c23)cc1	5.8 min
Cc1cccc(CN2CCN(c3ccccn3)CC2)c1	2.4 min
COc1ccc(S(=O)(=O)N(CC(=O)Nc2ccc(C)cc2)c2ccc(C)cc2)cc1OC	3.28 min
COc1cc(F)ccc1-c1nc(-c2c(C)noc2C)cc2c1cc(C)n2C	21.6 min
O=C(Nc1ncc(Cc2ccc(C(F)(F)F)cc2)s1)c1ccc(-c2ccccc2[N+](=O)[O-])o1	> 30 min
Cc1ccc(C2=CSC(NC(=O)CSc3nncn3C)=NN2)cc1	1.8 min
COc1ccccc1C(=O)NC1CCCc2c1[nH]c1c(Cl)cccc21 (stereo not drawn)	2.31 min
Cc1nc2ccc(Nc3nc(-c4ccncc4)nc4ccccc34)cc2s1	10 min
COc1ccnc(NC(=S)N2CCN(c3ccc(Cl)c(Cl)c3)CC2)c1	20 min
O=C(NCc1ccco1)c1nc2nc(-c3cccs3)cc(C(F)(F)F)n2n1	> 30 min

SMILES	half-life
O=C(CCCCn1c(=O)[nH]c2ccsc2c1=O)N1CCN(c2cccc(Cl)c2)CC1	8.06 min
Cc1ccc(S(=O)(=O)c2cnc(SC(C)C(=O)Nc3ccccc3)[nH]c2=O)cc1 (stereo not drawn)	10.7 min
CC(C)(O)C=CC(=O)[C@](C)(O)[C@H]1[C@H](O)C[C@]2(C)[C@@H]3CC=C4[C@@H](C=C(O)C(=O)C4(C)C)[C@]3(C)C(=O)C[C@@]12C	> 30 min
Cc1cccc2nc(-c3ccccn3)c(Nc3ccc(F)cc3)n12	6.75 min
Cc1ccccc1S(=O)(=O)N1CCc2cc(-c3nc(NC(=O)Cc4ccc5c(c4)OCO5)sc3C)ccc21	5 min
CCOc1ccc(NC(=O)c2ccc(F)c(S(=O)(=O)N(CC)Cc3ccccc3)c2)cc1	1.3 min
CNc1sc(-c2cccc3ccccc23)nc1C#N	12.9 min
CCN(CC)S(=O)(=O)c1ccc(N2CCCC2)c(NS(=O)(=O)c2ccccc2)c1	1.1 min
CCNc1oc(-c2cccc3ccccc23)nc1C#N	13 min
COc1cc(-c2nc(Nc3ccc(F)c(F)c3)c3ccccc3n2)ccn1	> 30 min
Cc1ccc(C(=O)Nc2ccc3oc(-c4cccnc4)nc3c2)cc1[N+](=O)[O-]	13.2 min
Cn1c2ccccc2c(=O)c2c(=O)n(-c3ccccc3)c(C3CCCCC3)nc21	> 30 min
CCOc1ccc(CCNC(=O)c2cc3ccccc3n2Cc2cccc(C)n2)cc1OCC	1.6 min
NC1(c2ccccc2Cl)CCCCC1=O (stereo not drawn)	11 min
COc1ccnc(NC(=S)N2CCN(c3cccc(C(F)(F)F)c3)CC2)c1	> 30 min
Cc1sc2c(c1C)C(c1ccc(Cl)cc1)=N[C@@H](CC(=O)OC(C)(C)C)c1nnc(C)n1-2	6.4 min
COCC(C)NCc1cc2ccc(OC)cc2nc1N1CCN(c2ccc(F)cc2)CC1 (stereo not drawn)	10.4 min
O=C1Nc2ccccc2/C1=C/c1cccc(C(=O)O)c1	> 30 min
O=C(COC(=O)CCC(=O)c1cccs1)NCc1ccco1	1 min
O=C(Cn1ccn2nc3c(c2c1=O)CCCCC3)Nc1ccc2c(c1)OCO2	6.81 min

Reference: PubChem BioAssay AID1508591
